Source: patent publication US20050075375A1 (priority 2003, published 2005)

System: monocistronic NK5.1 HCV replicon in Huh7 cells
Test: HCV replicon assay, monocistronic replicon cell line
Type: cell-based, hepatitis C virus
Conditions: Hepatitis C virus, Huh-7, 72 h, read-out: Mono EC50 Median
Procedure, shortened: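 EC50 derives from the HCV RNA/GAPDH RNA ratio by one-step TaqMan RT-PCR, relative to DMSO-only wells. Compounds (six half-log concentrations, 0.6% DMSO) were incubated 3 days at 37 °C with NK5.1 monocistronic replicon Huh7 cells plated a day earlier.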

First: O=[N+]([O-])c1cccc(-c2nc(-c3ncccc3[N+](=O)[O-])no2)c1 [Compound 156, 3-Nitro-2-[5-(3-nitro-phenyl)-[1,2,4]oxadiazol-3-yl]-pyridine]
Second: O=[N+]([O-])c1ccc(O)c(-c2nc(-c3ncccc3[N+](=O)[O-])no2)c1 [Compound 158, 4-Nitro-2-[3-(3-nitro-pyridin-2-yl)-[1,2,4]oxadiazol-5-yl]-phenol]
The EC50 of the first is higher: > 19 µM for the first, 11 µM for the second. The second is the more potent here.

Compared with `O=[N+]([O-])c1ccc(-c2nc(-c3ncccc3[N+](=O)[O-])no2)c(Cl)c1` [Compound 167, 2-[5-(2-Chloro-4-nitro-phenyl)-[1,2,4]oxadiazol-3-yl]-3-nitro-pyridine], `O=[N+]([O-])c1ccc(F)c(-c2nc(-c3ncccc3[N+](=O)[O-])no2)c1` [Compound 168, 2-[5-(2-Fluoro-5-nitro-phenyl)-[1,2,4]oxadiazol-3-yl]-3-nitro-pyridine] is 2.6-fold lower in EC50: 12 µM for the first, 4.6 µM for the second. The second is the more potent here.

Same assay, conditions: Hepatitis C virus, Huh-7, 72 h; Table 1; monocistronic replicon in Huh7 cells, 3 days incubation, HCV RNA/GAPDH RNA by TaqMan RT-PCR; read-out: Mono EC50 Median

Going from `COc1ccc(O)c(-c2cc(-c3ncccc3C)on2)c1` [Compound 132, 4-Methoxy-2-[5-(3-methyl-pyridin-2-yl)-isoxazol-3-yl]-phenol] to `COc1ccc(-c2nc(-c3ncccc3C)no2)c(O)c1` [Compound 175, 5-Methoxy-2-[3-(3-methyl-pyridin-2-yl)-[1,2,4]oxadiazol-5-yl]-phenol], the EC50 falls from 2 µM to 0.5 µM (4-fold). The second is the more potent here.

First: Oc1ccccc1-c1nc(-c2ccccn2)no1 [Compound 133, 2-(3-Pyridin-2-yl-[1,2,4]oxadiazol-5-yl)-phenol]
Second: Oc1ccc(O)c(-c2nc(-c3ccccn3)no2)c1 [Compound 150, 2-(3-Pyridin-2-yl-[1,2,4]oxadiazol-5-yl)-benzene-1,4-diol]
The EC50 of the first is higher: > 19 µM for the first, 16 µM for the second. The second is the more potent here.

`Oc1ccc2ccccc2c1-c1nc(-c2ccccn2)no1` [Compound 134, 1-(3-Pyridin-2-yl-[1,2,4]oxadiazol-5-yl)-naphthalen-2-ol] and `COc1ccc2ccccc2c1-c1nc(-c2ccccn2)no1` [Compound 143, 2-[5-(2-Methoxy-naphthalen-1-yl)-[1,2,4]oxadiazol-3-yl]-pyridine] are within 1.5-fold of each other in EC50: 17 µM for the first, 13 µM for the second.

Going from `Oc1ccc2ccccc2c1-c1nc(-c2ccccc2)no1` [Compound 135, 1-(3-Phenyl-[1,2,4]oxadiazol-5-yl)-naphthalen-2-ol] to `O=[N+]([O-])c1cccnc1-c1noc(-c2c(O)ccc3ccccc23)n1` [Compound 137, 1-[3-(3-Nitro-pyridin-2-yl)-[1,2,4]oxadiazol-5-yl]-naphthalen-2-ol], the EC50 falls from > 32 µM to 1.8 µM. The second is the more potent here.

Compared with `Oc1ccc2ccccc2c1-c1nc(-c2cc(C(F)(F)F)ccc2F)no1` [Compound 136, 1-[3-(2-Fluoro-5-trifluoromethyl-phenyl)-[1,2,4]oxadiazol-5-yl]-naphthalen-2-ol], `FC(F)(F)c1cccnc1-c1noc(-c2cccc3ccccc23)n1` [Compound 153, 2-(5-Naphthalen-1-yl-[1,2,4]oxadiazol-3-yl)-3-trifluoromethyl-pyridine] is lower in EC50: > 32 µM for the first, 7.9 µM for the second.

Going from `COc1cccc(-c2nc(-c3ncccc3C(F)(F)F)no2)c1` [Compound 138, 2-[5-(3-Methoxy-phenyl)-[1,2,4]oxadiazol-3-yl]-3-trifluoromethyl-pyridine] to `COc1cccc(-c2nc(-c3ncccc3C)no2)c1` [Compound 176, 2-[5-(3-Methoxy-phenyl)-[1,2,4]oxadiazol-3-yl]-3-methyl-pyridine], the EC50 falls from > 19 µM to 13 µM. The second is the more potent here.

Going from `COc1cccc(-c2nc(-c3ccccn3)no2)c1` [Compound 139, 2-[5-(3-Methoxy-phenyl)-[1,2,4]oxadiazol-3-yl]-pyridine] to `O=[N+]([O-])c1cccc(-c2nc(-c3ccccn3)no2)c1` [Compound 148, 2-[5-(3-Nitro-phenyl)-[1,2,4]oxadiazol-3-yl]-pyridine], the EC50 rises from 18 µM to > 19 µM. The first is the more potent here.

`c1ccc(-c2noc(-c3cccc4ccccc34)n2)nc1` [Compound 140, 2-(5-Naphthalen-1-yl-[1,2,4]oxadiazol-3-yl)-pyridine] and `Cc1cccnc1-c1noc(-c2cccc3ccccc23)n1` [Compound 177, 3-Methyl-2-(5-naphthalen-1-yl-[1,2,4]oxadiazol-3-yl)-pyridine] are within 1.5-fold of each other in EC50: 7.1 µM for the first, 7.2 µM for the second.

Going from `O=[N+]([O-])c1ccc(-c2nc(-c3ccccn3)no2)c(Cl)c1` [Compound 141, 2-[5-(2-Chloro-4-nitro-phenyl)-[1,2,4]oxadiazol-3-yl]-pyridine] to `O=[N+]([O-])c1ccc(Cl)c(-c2nc(-c3ccccn3)no2)c1` [Compound 173, 2-[5-(2-Chloro-5-nitro-phenyl)-[1,2,4]oxadiazol-3-yl]-pyridine], the EC50 falls from 10 µM to 3.8 µM (2.6-fold). The second is the more potent here.

Going from `COc1ccc(OC)c(-c2nc(-c3ccccn3)no2)c1` [Compound 142, 2-[5-(2,5-Dimethoxy-phenyl)-[1,2,4]oxadiazol-3-yl]-pyridine] to `COc1ccc(O)c(-c2nc(-c3ccccn3)no2)c1` [Compound 147, 4-Methoxy-2-(3-pyridin-2-yl-[1,2,4]oxadiazol-5-yl)-phenol], the EC50 falls from 20 µM to 4.4 µM (4.5-fold). The second is the more potent here.

Compared with `Oc1ccc(Br)cc1-c1nc(-c2ccccn2)no1` [Compound 144, 4-Bromo-2-(3-pyridin-2-yl-[1,2,4]oxadiazol-5-yl)-phenol], `Oc1ccc(Cl)cc1-c1nc(-c2ccccn2)no1` [Compound 145, 4-Chloro-2-(3-pyridin-2-yl-[1,2,4]oxadiazol-5-yl)-phenol] is 1.6-fold lower in EC50: 3.7 µM for the first, 2.3 µM for the second.

Going from `O=[N+]([O-])c1ccc(O)c(-c2nc(-c3ccccn3)no2)c1` [Compound 146, 4-Nitro-2-(3-pyridin-2-yl-[1,2,4]oxadiazol-5-yl)-phenol] to `O=[N+]([O-])c1ccc(F)c(-c2nc(-c3ccccn3)no2)c1` [Compound 149], the EC50 falls from > 32 µM to 4.1 µM. The second is the more potent here.

First: COc1cccc(-c2nc(-c3ccccn3)no2)c1O [Compound 151, 2-Methoxy-6-(3-pyridin-2-yl-[1,2,4]oxadiazol-5-yl)-phenol]
Second: COc1ccc(-c2nc(-c3ccccn3)no2)c(O)c1 [Compound 152, 5-Methoxy-2-(3-pyridin-2-yl-[1,2,4]oxadiazol-5-yl)-phenol]
The EC50 of the first is 3.2-fold higher: 18 µM for the first, 5.6 µM for the second.

`O=[N+]([O-])c1cccnc1-c1noc(-c2cc(Cl)ccc2O)n1` [Compound 154, 4-Chloro-2-[3-(3-nitro-pyridin-2-yl)-[1,2,4]oxadiazol-5-yl]-phenol] and `O=[N+]([O-])c1cccnc1-c1noc(-c2cc(Br)ccc2O)n1` [Compound 155, 4-Bromo-2-[3-(3-nitro-pyridin-2-yl)-[1,2,4]oxadiazol-5-yl]-phenol] cannot be ordered by EC50: > 19 µM for the first, > 19 µM for the second.

Compared with `O=[N+]([O-])c1cccnc1-c1noc(-c2cccc3ccccc23)n1` [Compound 157, 2-(5-Naphthalen-1-yl-[1,2,4]oxadiazol-3-yl)-3-nitro-pyridine], `COc1ccc2ccccc2c1-c1nc(-c2ncccc2[N+](=O)[O-])no1` [Compound 169] is higher in EC50: 4.7 µM for the first, > 19 µM for the second.

Compared with `COc1ccc(OC)c(-c2nc(-c3ncccc3[N+](=O)[O-])no2)c1` [Compound 159], `COc1ccc(O)c(-c2nc(-c3ncccc3[N+](=O)[O-])no2)c1` [Compound 160, 4-Methoxy-2-[3-(3-nitro-pyridin-2-yl)-[1,2,4]oxadiazol-5-yl]-phenol] is higher in EC50: 16 µM for the first, > 19 µM for the second.

Going from `O=[N+]([O-])c1cccnc1-c1noc(-c2ccccc2O)n1` [Compound 161, 2-[3-(3-Nitro-pyridin-2-yl)-[1,2,4]oxadiazol-5-yl]-phenol] to `O=[N+]([O-])c1cccnc1-c1noc(-c2cc(O)ccc2O)n1` [Compound 171, 2-[3-(3-Nitro-pyridin-2-yl)-[1,2,4]oxadiazol-5-yl]-benzene-1,4-diol], the EC50 falls from > 19 µM to 5.4 µM.

Compared with `O=[N+]([O-])c1cccnc1-c1noc(-c2cc(F)ccc2O)n1` [Compound 162, 4-Fluoro-2-[3-(3-nitro-pyridin-2-yl)-[1,2,4]oxadiazol-5-yl]-phenol], `Cc1ccc(O)c(-c2nc(-c3ncccc3[N+](=O)[O-])no2)c1` [Compound 174, 4-Methyl-2-[3-(3-nitro-pyridin-2-yl)-[1,2,4]oxadiazol-5-yl]-phenol] is 1.7-fold lower in EC50: 17 µM for the first, 10 µM for the second. The second is the more potent here.

`CN(C)c1ccc(-c2nc(-c3ccccn3)no2)c(O)c1` [Compound 163, 5-Dimethylamino-2-(3-pyridin-2-yl-[1,2,4]oxadiazol-5-yl)-phenol] and `Cc1cccnc1-c1noc(-c2ccc(N(C)C)cc2O)n1` [Compound 180] are within 1.5-fold of each other in EC50: 1.5 µM for the first, 2.1 µM for the second.

Going from `Oc1ccc(F)cc1-c1nc(-c2ccccn2)no1` [Compound 164, 4-Fluoro-2-(3-pyridin-2-yl-[1,2,4]oxadiazol-5-yl)-phenol] to `Cc1ccc(O)c(-c2nc(-c3ccccn3)no2)c1` [Compound 172, 4-Methyl-2-(3-pyridin-2-yl-[1,2,4]oxadiazol-5-yl)-phenol], the EC50 falls from 9 µM to 6 µM (1.5-fold).

Compared with `COc1cccc(-c2nc(-c3ncccc3[N+](=O)[O-])no2)c1` [Compound 165, 2-[5-(3-Methoxy-phenyl)-[1,2,4]oxadiazol-3-yl]-3-nitro-pyridine], `COc1ccc(-c2nc(-c3ncccc3[N+](=O)[O-])no2)c(O)c1` [Compound 170, 5-Methoxy-2-[3-(3-nitro-pyridin-2-yl)-[1,2,4]oxadiazol-5-yl]-phenol] is 1.5-fold lower in EC50: 18 µM for the first, 12 µM for the second. The second is the more potent here.

`COc1cccc(-c2nc(-c3ncccc3[N+](=O)[O-])no2)c1O` [Compound 166, 2-Methoxy-6-[3-(3-nitro-pyridin-2-yl)-[1,2,4]oxadiazol-5-yl]-phenol] and `Cc1cccnc1-c1noc(-c2cccc([N+](=O)[O-])c2)n1` [Compound 181] cannot be ordered by EC50: > 19 µM for the first, > 32 µM for the second.

Going from `COc1ccc(OC)c(-c2nc(-c3ncccc3C)no2)c1` [Compound 178, 2-[5-(2,5-Dimethoxy-phenyl)-[1,2,4]oxadiazol-3-yl]-3-methyl-pyridine] to `Cc1cccnc1-c1noc(-c2cc(O)ccc2O)n1` [Compound 179, 2-[3-(3-Methyl-pyridin-2-yl)-[1,2,4]oxadiazol-5-yl]-benzene-1,4-diol], the EC50 falls from > 32 µM to 1.3 µM.
